# Test: Measurement of Sodium Ion Channel Blocking Effects: In order to measure the sodium ion channel blocking effect, an IonFlux16 Auto patch clamp system (Fluxion, Inc.) and a plate for exclusive use were used. The cells were distributed in an extracellular solution (4 mM KCl, 138 mM NaCl, 1 mM MgCl2, 1.8 mM CaCl2, 5.6 mM glucose, 10 mM HEPES, pH 7.45), and then dispensed in the specified region of the plate, and each of the prepared compound samples was diluted at various concentrations, and then dispensed in the specified region of the plate.
# Format: cell-based
row,SMILES,IC50 [nM]
1,COc1ccc(Nc2cc(F)c(S(=O)(=O)Nc3cscn3)cc2Cl)c(N2CC[C@H](N(C)C)C2)c1,435
2,CNC1CCN(c2cc(OC(F)(F)F)ccc2Nc2c(F)cc(S(=O)(=O)Nc3cscn3)cc2F)C1 (stereo not given),369
3,COC1CCN(c2cc(F)ccc2Nc2cc(F)c(S(=O)(=O)Nc3cscn3)cc2Cl)C1 (stereo not given),277
4,CNC1CCN(c2cc(C)ccc2Nc2cc(F)c(S(=O)(=O)Nc3cscn3)cc2Cl)C1 (stereo not given),489
5,CN1CCN(c2cc(C(F)(F)F)ccc2Nc2cc(F)c(S(=O)(=O)Nc3cscn3)cc2Cl)CC1,541
6,CN[C@@H]1CCCN(c2cc(OC)ccc2Nc2ccc(S(=O)(=O)Nc3cscn3)cc2)C1,> 1000
7,CN(C)[C@H]1CCN(c2cc(C(F)(F)F)ccc2Nc2cc(F)c(S(=O)(=O)Nc3cscn3)cc2Cl)C1,1170
8,O=S(=O)(Nc1cscn1)c1ccc(Nc2ccc(F)cc2N2CC[C@@H](F)C2)cc1,> 1000
9,CNC1CCN(c2cc(OC)ccc2Nc2ccc(S(=O)(=O)Nc3cscn3)c(F)c2)C1 (stereo not given),> 1000
10,CN(C)[C@H]1CCN(c2cc(F)ccc2Nc2cc(F)c(S(=O)(=O)Nc3cscn3)cc2Cl)C1,> 10000
11,O=S(=O)(Nc1cscn1)c1ccc(Nc2ccc(F)cc2N2CC[C@@H](F)C2)cc1F,> 1000
12,O=S(=O)(Nc1cscn1)c1cc(F)c(Nc2ccc(F)cc2N2CC[C@@H](F)C2)c(F)c1,> 1000
13,CN1CCN(c2cc(F)ccc2Nc2cc(F)c(S(=O)(=O)Nc3cscn3)cc2Cl)CC1,> 1000
14,CNC1CCN(c2cc(F)ccc2Nc2ccc(S(=O)(=O)Nc3cscn3)c(F)c2)C1 (stereo not given),372
15,CN1CCN(c2cc(F)ccc2Nc2ccc(S(=O)(=O)Nc3cscn3)cc2Cl)CC1,> 1000
16,CNC1CCN(c2c(F)cccc2Nc2ccc(S(=O)(=O)Nc3cscn3)cc2Cl)C1 (stereo not given),375
17,CN[C@@H]1CCCN(c2cc(F)ccc2Nc2ccc(S(=O)(=O)Nc3cscn3)cc2)C1,> 1000
18,CN[C@@H]1CCCN(c2cc(OC)ccc2Nc2ccc(S(=O)(=O)Nc3cscn3)cc2Cl)C1,> 1000
19,CN[C@@H]1CCN(c2cc(F)ccc2Nc2ccc(S(=O)(=O)Nc3cscn3)c(F)c2)C1,> 300
20,COC1CCN(c2cc(C(F)(F)F)ccc2Nc2ccc(S(=O)(=O)Nc3cscn3)cc2Cl)C1 (stereo not given),352

row,SMILES,IC50 [nM]
1,NC1CCN(c2cc(F)ccc2Nc2ccc(S(=O)(=O)Nc3cscn3)c(F)c2)C1 (stereo not given),> 1000
2,CNC1CCN(c2cc(F)ccc2Nc2ccc(S(=O)(=O)Nc3cscn3)cc2Cl)C1 (stereo not given),1010
3,CNC1CCN(c2nc(Cl)ccc2Nc2cc(F)c(S(=O)(=O)Nc3cscn3)cc2Cl)C1 (stereo not given),> 1000
4,CNC1CCN(c2cc(F)ccc2Nc2c(F)cc(S(=O)(=O)Nc3cscn3)cc2F)C1 (stereo not given),412
5,CNC1CCN(c2cc(OC(F)(F)F)ccc2Nc2ccc(S(=O)(=O)Nc3cscn3)cc2)C1 (stereo not given),447
6,CC(=O)N[C@@H]1CCN(c2cc(F)ccc2Nc2cc(F)c(S(=O)(=O)Nc3cscn3)cc2Cl)C1,1930
7,CN[C@@H]1CCN(c2cc(F)ccc2Nc2ccc(S(=O)(=O)Nc3cscn3)cc2Cl)C1,362
8,CN[C@H]1CCN(c2cc(F)ccc2Nc2ccc(S(=O)(=O)Nc3cscn3)c(F)c2)C1,241
9,CNC1CCN(c2c(F)cccc2Nc2ccc(S(=O)(=O)Nc3cscn3)c(F)c2)C1 (stereo not given),686
10,CN(C)[C@@H]1CCN(c2cc(C(F)(F)F)ccc2Nc2cc(F)c(S(=O)(=O)Nc3cscn3)cc2Cl)C1,278
11,O=S(=O)(Nc1cscn1)c1ccc(Nc2ccc(F)cc2N2CC[C@@H](F)C2)c(Cl)c1,> 1000
12,CNC1CCN(c2cc(Cl)cnc2Nc2cc(F)c(S(=O)(=O)Nc3cscn3)cc2Cl)C1 (stereo not given),> 1000
13,CNC1CCN(c2cc(OC)ccc2Nc2ccc(S(=O)(=O)Nc3cscn3)cc2Cl)C1 (stereo not given),> 1000
14,CN[C@@H]1CCCN(c2cc(OC)ccc2Nc2c(F)cc(S(=O)(=O)Nc3cscn3)cc2F)C1,> 1000
15,CN[C@@H]1CCN(c2cc(F)ccc2Nc2c(F)cc(S(=O)(=O)Nc3cscn3)cc2F)C1,> 1000
16,CN[C@@H]1CCCN(c2cc(F)ccc2Nc2ccc(S(=O)(=O)Nc3cscn3)c(F)c2)C1,357
17,CN[C@@H]1CCN(c2cc(F)ccc2Nc2ccc(S(=O)(=O)Nc3cscn3)cc2)C1,> 1000
18,COC1CCN(c2cc(F)ccc2Nc2ccc(S(=O)(=O)Nc3cscn3)cc2Cl)C1 (stereo not given),1220
19,CN[C@@H]1CCCN(c2cc(OC)ccc2Nc2ccc(S(=O)(=O)Nc3cscn3)c(F)c2)C1,> 1000

# Next, values leading:
row,IC50 [nM],SMILES
1,28,CN[C@H]1CCN(c2cc(C(F)(F)F)ccc2Nc2ccc(S(=O)(=O)Nc3cscn3)cc2Cl)C1
2,126,CN(C)[C@@H]1CCN(c2cc(OC(F)F)ccc2Nc2cc(F)c(S(=O)(=O)Nc3cscn3)cc2Cl)C1
3,125,O=S(=O)(Nc1cscn1)c1cc(Cl)c(Nc2ccc(Cl)cc2N2CCC(N3CCCC3)C2)cc1F (stereo not given)
4,27,CNC1CCN(c2cc(C(F)(F)F)ccc2Nc2ccc(S(=O)(=O)Nc3cscn3)cc2Cl)C1 (stereo not given)
5,212,CC(=O)N[C@@H]1CCN(c2cc(C(F)(F)F)ccc2Nc2cc(F)c(S(=O)(=O)Nc3cscn3)cc2Cl)C1
6,44,CN[C@@H]1CCCN(c2cc(Cl)ccc2Nc2cc(F)c(S(=O)(=O)Nc3cscn3)cc2Cl)C1
7,120,CC(=O)N[C@@H]1CCN(c2cc(Cl)ccc2Nc2cc(F)c(S(=O)(=O)Nc3cscn3)cc2Cl)C1
8,140,COC1CCN(c2cc(C(F)(F)F)ccc2Nc2cc(F)c(S(=O)(=O)Nc3cscn3)cc2Cl)C1 (stereo not given)
9,103,CN(C)[C@H]1CCN(c2cc(C(F)(F)F)ccc2Nc2ccc(S(=O)(=O)Nc3cscn3)cc2Cl)C1
10,241,NC1CCN(c2cc(F)ccc2Nc2ccc(S(=O)(=O)Nc3cscn3)cc2Cl)C1 (stereo not given)
11,53,CNC1CCN(c2cc(OC(F)(F)F)ccc2Nc2cc(F)c(S(=O)(=O)Nc3cscn3)cc2Cl)C1 (stereo not given)
12,182,CCN(CC)C1CCN(c2cc(Cl)ccc2Nc2cc(F)c(S(=O)(=O)Nc3cscn3)cc2Cl)C1 (stereo not given)
13,50,CN[C@H]1CCN(c2cc(F)ccc2Nc2cc(F)c(S(=O)(=O)Nc3cscn3)cc2Cl)C1
14,236,O=S(=O)(Nc1cscn1)c1cc(Cl)c(Nc2ccc(F)cc2N2CC[C@@H](F)C2)cc1F
15,149,O=S(=O)(Nc1cscn1)c1cc(Cl)c(Nc2ccc(F)cc2N2CCCNCC2)cc1F
16,23,CN[C@H]1CCN(c2cc(C(F)(F)F)ccc2Nc2cc(F)c(S(=O)(=O)Nc3cscn3)cc2Cl)C1
17,160,CN1CCN(c2cc(OC(F)F)ccc2Nc2cc(F)c(S(=O)(=O)Nc3cscn3)cc2Cl)CC1
18,100,CN(C)[C@@H]1CCN(c2cc(F)ccc2Nc2cc(F)c(S(=O)(=O)Nc3cscn3)cc2Cl)C1
19,21,CNC1CCN(c2cc(C(F)(F)F)ccc2Nc2cc(F)c(S(=O)(=O)Nc3cscn3)cc2Cl)C1 (stereo not given)
20,108,CNC1CCN(c2cc(OC(F)(F)F)ccc2Nc2ccc(S(=O)(=O)Nc3cscn3)c(F)c2)C1 (stereo not given)
21,216,CC(=O)N[C@@H]1CCN(c2cc(C(F)(F)F)ccc2Nc2ccc(S(=O)(=O)Nc3cscn3)cc2Cl)C1
22,73,CN[C@@H]1CCCN(c2cc(OC)ccc2Nc2cc(F)c(S(=O)(=O)Nc3cscn3)cc2Cl)C1
23,32,CNC1CCN(c2cc(C#N)ccc2Nc2cc(F)c(S(=O)(=O)Nc3cscn3)cc2Cl)C1 (stereo not given)
24,205,NC1CCN(c2cc(F)ccc2Nc2cc(F)c(S(=O)(=O)Nc3cscn3)cc2Cl)C1 (stereo not given)
25,44,CN[C@@H]1CCN(c2cc(F)ccc2Nc2cc(F)c(S(=O)(=O)Nc3cscn3)cc2Cl)C1
26,46,CN(C)[C@H]1CCN(c2cc(OC(F)F)ccc2Nc2cc(F)c(S(=O)(=O)Nc3cscn3)cc2Cl)C1
